# Laboratory results as given in ChEMBL document CHEMBL5303304, “EUbOPEN Chemogenomics Library - IncuCyte” (2023).
# Assays:
# Assay type in all cases: toxicity, cell-based
# HEK-293T = assay: Incucyte cell viability with HEK293T; conditions: human, 10 µM, compound concentration 10 uM
# Fibroblast = assay: Incucyte cell viability with human fibroblast; conditions: 10 µM, compound concentration 10 uM
# U2OS = assay: Incucyte cell viability with U2OS; conditions: human, 10 µM, compound concentration 10 uM
# Also: unitless GR value; below 1 slowed growth and below 0 cell loss.
Compound,"Growth Rate (HEK-293T; 6 h, replicate number 1)","Growth Rate (HEK-293T; 6 h, replicate number 2)","Growth Rate (HEK-293T; 12 h, replicate number 1)","Growth Rate (HEK-293T; 12 h, replicate number 2)","Growth Rate (HEK-293T; 18 h, replicate number 1)","Growth Rate (HEK-293T; 18 h, replicate number 2)","Growth Rate (HEK-293T; 24 h, replicate number 1)","Growth Rate (HEK-293T; 24 h, replicate number 2)","Growth Rate (Fibroblast; 0 h, replicate number 1)","Growth Rate (U2OS; 12 h, replicate number 1)","Growth Rate (U2OS; 12 h, replicate number 2)","Growth Rate (U2OS; 18 h, replicate number 1)","Growth Rate (U2OS; 18 h, replicate number 2)","Growth Rate (U2OS; 24 h, replicate number 1)","Growth Rate (U2OS; 24 h, replicate number 2)","Growth Rate (Fibroblast; 12 h, replicate number 2)","Growth Rate (Fibroblast; 24 h, replicate number 2)","Growth Rate (U2OS; 6 h, replicate number 1)","Growth Rate (Fibroblast; 6 h, replicate number 2)","Growth Rate (Fibroblast; 12 h, replicate number 1)",other results
CCN1CCN(Cc2ccc(Nc3ncc(F)c(-c4cc(F)c5nc(C)n(C(C)C)c5c4)n3)nc2)CC1 [ABEMACICLIB],0.74,0.78,0.31,0.37,0.35,0.44,0.54,0.44,-1,0.83,0.9,0.62,0.56,0.63,0.4,–,–,–,–,–,"Growth Rate (HEK-293T; 0 h, replicate number 1): -1; Growth Rate (HEK-293T; 0 h, replicate number 2): -0.03; Growth Rate (U2OS; 0 h, replicate number 1): -0.95"
Cc1nnc2n1-c1sc3c(c1C(c1ccccc1Cl)=NC2)C[C@@H](C(=O)N1CCOCC1)C3,–,–,–,–,–,–,–,–,–,0.84,–,–,–,–,–,0.81,0.86,0.49,–,–,"Growth Rate (HEK-293T; 0 h, replicate number 1): -0.21; Growth Rate (HEK-293T; 0 h, replicate number 2): -0.7; Growth Rate (U2OS; 0 h, replicate number 1): 0.65"
Cc1cc(C)nc(Nc2ncc(C(=O)NCCc3c(C)[nH]c4ccccc34)cn2)c1.Cl,0.92,0.14,–,0.82,0.94,1,0.99,–,-1,0.79,0.87,0.77,–,0.98,–,–,0.93,0.56,–,–,"Growth Rate (U2OS; 0 h, replicate number 2): 0.92; Growth Rate (U2OS; 6 h, replicate number 2): 0.75"
CNC(=O)COc1cc2cc(Nc3nc(N4CCC(C(=O)N(C)C)CC4)ncc3Cl)cc(OC)c2n(C)c1=O,0.46,0.13,0.74,0.41,0.57,0.58,0.67,0.66,–,–,0.77,–,0.87,0.92,0.91,–,0.87,0.94,0.46,–,"Growth Rate (Fibroblast; 0 h, replicate number 2): 0; Growth Rate (U2OS; 0 h, replicate number 2): 0.59"
O=C(NS(=O)(=O)N1CCC1)c1cc(C2CC2)c(OCC23CC4CC(CC(C4)C2)C3)cc1F,0.69,0.7,0.88,–,0.87,0.99,0.8,0.92,0.19,–,0.73,–,0.8,–,0.87,-0.01,0.37,0.59,-1,–,"Growth Rate (HEK-293T; 0 h, replicate number 1): 0.85; Growth Rate (HEK-293T; 0 h, replicate number 2): 0.39; Growth Rate (Fibroblast; 6 h, replicate number 1): 0.24; Growth Rate (Fibroblast; 18 h, replicate number 1): 0.03; Growth Rate (Fibroblast; 18 h, replicate number 2): 0.31; Growth Rate (Fibroblast; 24 h, replicate number 1): 0.81; Growth Rate (U2OS; 0 h, replicate number 1): -0.5; Growth Rate (U2OS; 0 h, replicate number 2): -0.98; Growth Rate (U2OS; 6 h, replicate number 2): 0.7"
Cc1cc(Nc2ncc(Cl)c(Nc3ccccc3S(=O)(=O)C(C)C)n2)c(OC(C)C)cc1C1CCNCC1 [CERITINIB],-0.91,-0.87,-0.6,-0.49,-0.4,-0.35,-0.33,-0.26,-0.31,-0.79,-0.82,-0.64,-0.68,-0.57,-0.61,-0.99,-0.84,-0.98,-1,-1,"Growth Rate (Fibroblast; 18 h, replicate number 1): -0.92; Growth Rate (Fibroblast; 18 h, replicate number 2): -0.93; Growth Rate (Fibroblast; 24 h, replicate number 1): -0.63; Growth Rate (U2OS; 0 h, replicate number 1): 0.45; Growth Rate (U2OS; 6 h, replicate number 2): -0.96"
C[C@@H](c1ccc(F)cc1)n1nnc2cnc3ccc(-c4ccc5ocnc5c4)cc3c21,–,0.07,–,0.99,–,–,–,–,0.85,–,–,0.87,–,0.82,–,–,–,–,0.8,-0.93,"Growth Rate (Fibroblast; 0 h, replicate number 2): -0.11; Growth Rate (Fibroblast; 6 h, replicate number 1): -0.77; Growth Rate (Fibroblast; 18 h, replicate number 1): 0.35; Growth Rate (Fibroblast; 24 h, replicate number 1): 1; Growth Rate (U2OS; 0 h, replicate number 1): -0.74; Growth Rate (U2OS; 0 h, replicate number 2): 0.17"
Cc1cc(-c2nc(-c3ccc(OC(F)(F)F)cc3)no2)nn1Cc1ccnc(N2CCN(C3CC3)CC2)c1,0.47,-0.22,0.32,0.08,0.25,0.18,0.37,0.3,-1,0.94,0.51,–,0.61,0.88,0.71,0.36,0.5,–,–,0.3,"Growth Rate (Fibroblast; 6 h, replicate number 1): 0.9; Growth Rate (Fibroblast; 18 h, replicate number 1): 0.22; Growth Rate (Fibroblast; 18 h, replicate number 2): 0.2; Growth Rate (Fibroblast; 24 h, replicate number 1): 0.26"
CC(=O)Nc1ncc(CN2CCC[C@H](Cc3cc(C)nc(C)c3)C2)s1 [JNJ-65355394],0.82,–,0.83,–,–,–,0.91,–,-1,–,0.62,0.96,0.92,–,0.78,0.75,–,-0.86,0.74,0.9,"Growth Rate (HEK-293T; 0 h, replicate number 2): -0.2; Growth Rate (Fibroblast; 18 h, replicate number 2): 0.94; Growth Rate (U2OS; 0 h, replicate number 1): -1"
CCc1ncnc(N2CCN(C(C)=O)CC2)c1C#Cc1ccc(N)nc1.Cl.Cl,-0.05,-0.04,0.06,-0.05,0.05,0.01,0.01,0.02,–,0.73,0.99,0.73,0.8,0.7,0.68,0.76,0.53,0.86,0.3,0.68,"Growth Rate (HEK-293T; 0 h, replicate number 2): -0.97; Growth Rate (Fibroblast; 18 h, replicate number 1): 0.66; Growth Rate (Fibroblast; 18 h, replicate number 2): 0.52; Growth Rate (Fibroblast; 24 h, replicate number 1): 0.61; Growth Rate (U2OS; 0 h, replicate number 1): -0.47"
Cc1nnsc1C(=O)Nc1ccc(-n2nc(C(F)(F)F)cc2C(F)(F)F)cc1,0.1,-0.01,0.96,0.28,0.7,0.39,0.58,0.42,–,0.51,0.42,0.97,0.63,0.9,0.68,0.73,0.74,0.52,-0.36,-1,"Growth Rate (Fibroblast; 0 h, replicate number 2): 0.89; Growth Rate (Fibroblast; 6 h, replicate number 1): 0.37; Growth Rate (Fibroblast; 18 h, replicate number 2): 0.94; Growth Rate (U2OS; 0 h, replicate number 2): -0.95; Growth Rate (U2OS; 6 h, replicate number 2): -0.02"
COc1cc(F)ccc1-c1ncnc(Nc2cccc(C[S@](C)(=N)=O)c2)n1 [ATUVECICLIB],-0.48,-0.61,-0.37,-0.56,-0.26,-0.44,-0.25,-0.36,-0.58,0.33,0.18,0.11,0.07,0.03,-0.05,-0.33,-0.14,0.72,-0.07,-0.04,"Growth Rate (Fibroblast; 6 h, replicate number 1): -0.11; Growth Rate (Fibroblast; 18 h, replicate number 1): -0.01; Growth Rate (Fibroblast; 18 h, replicate number 2): -0.2; Growth Rate (Fibroblast; 24 h, replicate number 1): 0.09; Growth Rate (U2OS; 0 h, replicate number 2): 0.53; Growth Rate (U2OS; 6 h, replicate number 2): 0.22"
CC(=O)Nc1nc2c(Oc3cc(-c4ccc(C(F)(F)F)cc4)ncn3)cccc2s1 [AMG-517],0.63,0.69,0.82,–,0.67,–,0.89,0.99,-0.1,0.8,0.88,–,0.91,0.86,0.96,0.8,–,0.79,-0.6,-1,"Growth Rate (HEK-293T; 0 h, replicate number 1): 0.87; Growth Rate (Fibroblast; 0 h, replicate number 2): -1; Growth Rate (Fibroblast; 6 h, replicate number 1): -0.08; Growth Rate (U2OS; 0 h, replicate number 2): -0.37; Growth Rate (U2OS; 6 h, replicate number 2): 0.81"
